Five molecules from patent US11123408B2, “Compositions and methods for treating nonsteroidal anti-inflammatory drug (NSAID) associated coagulopathy, thrombocytopenia, glanzmann's thrombasthenia, and/or thrombosis” (YALE UNIVERSITY, priority 2011, dated 2021) can be followed below.

“Also recorded” adds a separate entry of the source.

In experiment [1] the test system is platelets in platelet rich plasma. Put plainly: Light transmission aggregometry (LTA) in platelet rich plasma. Conditions: for inhibition of NPP4/Ap3A-promoted platelet aggregation (qualitative): increasing antagonist concentrations; for platelet aggregation response of enzyme in the presence of 80 μM Ap3A (qualitative): enzyme 50-200 nM. In kind it is cell-based, human. As to the method: (§1) Whole blood from healthy voluntary donors was collected in accordance with an IRB-approved protocol into blue top vacutainer tubes containing 3.2% sodium citrate. Blood was centrifuged at 1000 RPM for 10 minutes at room temperature to collect platelet rich plasma (PRP). PRP in the supernatant was then transferred to fresh tubes, and the remainder of the specimen was centrifuged at 4000 RPM for 10 minutes to obtain platelet poor plasma (PPP). PRP was adjusted to a final platelet count of 250×10^6 platelets/mL with autologous PPP for use in aggregation studies. Potential donors were excluded if there was a history of a bleeding disorder or current anticoagulant use and donors were instructed to avoid NSAIDs for at least 7 days prior to donation. Approval for the human subjects involved in this research was sought and granted by the Committee for the Protection of Human Subjects, Dartmouth-Hitchcock Medical Center, where these studies were conducted in accordance with the Declaration of Helsinki.
(§2) Light transmission (i.e., optical) and lumi aggregometry were performed on up to four samples from the same individual simultaneously with a Chrono-Log Model 700 Whole Blood/Optical Lumi Aggregometer (Chrono-Log Corporation, Havertown, Pa.) using procedures provided by the manufacturer that are briefly summarized here.
(§3) Platelet aggregation was determined by measuring the change in light transmittance of stirred PRP over time after addition of various agonists. Prior to each experiment the aggregometer was standardized to reflect 100% and 0% light transmittance with PPP and PRP, respectively, from the donor whose platelets were used in each specific experiment. 500 μL PRP was added to cuvettes containing a magnetic stir bar and allowed to pre-warm to 37° C. in the aggregometer wells for 3 minutes prior to initiating aggregation reactions which were then conducted at 37° C. Aggregation reactions were initiated by direct addition of agonists and/or enzymes to warmed, stirred PRP, and were monitored for an increase in light transmittance for 10 minutes. The increase in light transmittance is directly proportional to the amount of aggregation and is amplified and digitized into a computer (HP Compaq, Hewlett-Packard, Palo Alto, Calif.) with the AGGRO/LINK8 for Windows software (Chrono-Log Corporation, Havertown, Pa.) to generate aggregation curves. […] The platelet aggregometry experiments for all concentrations of MRS 2395 (including the 0 μM point) were conducted with the plasma adjusted to a final concentration of 10% DMSO to solubilize the inhibitor.

For experiment [2] the test system is unchanged. Put plainly: Lumi aggregometry (extracellular ATP, dense granule release) simultaneously with LTA. In kind it is cell-based, human. As for the experimental part: as §1, §2, §3
In a subgroup of experiments, lumi aggregometry was used to assay the levels of extracellular ATP simultaneously with LTA. Lumi aggregometry measures ATP in the extracellular space over time using a sensitive luminescent assay employing firefly luciferin-luciferase (CHRONO-LUME™ reagent, Chrono-Log Corporation, Havertown, Pa.). ATP binds to luciferin-luciferase and generates light that is then amplified by a high-gain photomultiplier tube in the lumi aggregometer and is measured simultaneously with the optical change in light transmittance caused by platelet aggregation. In experiments in which lumi aggregometry was performed, 450 μL of PRP was transferred to cuvettes containing magnetic stir bars and allowed to pre-warm to 37° C. in the aggregometer wells for 3 minutes. […] Reactions were initiated by the addition of agonists and/or enzymes to warmed PRP and CHRONOLUME′ reagent and were monitored for light generation. […]

A short description of experiment [3]: Ap3A hydrolysis by NPP enzymes (linked malachite green assay, absorbance change at 259 nm, HPLC). It counts as biochemical. Conditions: linked assay or steady state enzymatic studies. As to the method:
(§4) NPP4 nucleotide substrates were identified by directly detecting the free phosphate (Pi) product using malachite green (ADP substrate) or by a linked hydrolysis assay with alkaline phosphatase combined with malachite green (lipid substrates and nucleotide substrates without terminal P1) to measure released Pi. 50 μM substrate P1 equivalents (e.g. 25 μM ADP) were treated with 50 nM NPP4 for 1 hr 37 min (lipids) or 3 hr 15 min (all other substrates). For substrates without terminal phosphates, 10 units of calf intestinal alkaline phosphatase (M0290S, 10,000 units/mL, New England Biolabs, Ipswich, Mass.) was added for a final reaction volume of 50 μL. 100 μL of malachite green (BIOMOL GREEN™, Enzo Life Sciences, Plymouth Meeting, Pa.) was added to quench the reactions. The amount of phosphate released was measured by absorbance at 620 nm by a Biotek Synergy Mx plate reader (Winooski, Vt.) in 96-well plates (3679, Corning Inc., Corning, N.Y.) and compared against a phosphate standard curve.
The kinetics of the steady state Ap3A/Ap4A cleavage by NPP4 was measured from time courses of absorbance change at 259 nm using a UV spectrophotometer with a 0.1 cm optical path length cuvette or a stopped-flow device with a 0.2 cm optical path length cell. The enzymology reactions in 50 mM Tris pH 8.0, 140 mM NaCl, 5 mM KCl, 1 mM MgCl2 and 1 mM CaCl2 were started by addition of 1 μM NPP4 to varying concentrations of Ap3A/Ap4A (up to 800 μM) solution (UV spectrophotometer) or by rapid mixing of NPP4 and Ap3A/Ap4A (stopped-flow). The substrate concentrations higher than 800 μM have absorption too high to be measured by a UV spectrophotometer and stopped-flow, and were therefore measured by HPLC. […] Therefore, the rate of a product production or enzyme turnover measured by the absorption change assay can be calculated by the rate of absorption change
[formula] according to the following formula;
[formula] where Δl is optical path length. The following absorption coefficients were used: Ap3A: 25.75 mM^−1 cm^−1. Ap4A: 25.4 mM^−1 cm^−1. AMP, ADP, and ATP: 15.4 mM^−1 cm^−1. ADP Receptor Inhibitor Assay for NPP4 Inhibition
The HPLC protocol used to measure Ap3A/Ap4A cleavage by NPP4 and for product identification is modified from that of Stocchi et al. (1985, Anal Biochem 146:118-24). The reactions containing varying concentrations of Ap3A/Ap4A in the same buffer as in the absorbance change assay were started by addition of 0.2-1 μM NPP4 and quenched at various time points by equal volume of 3 M formic acid, or 0.5 N KOH and re-acidified by glacial acetic acid to pH 6. The quenched reaction solution was diluted systematically and loaded a HPLC system (Waters, Milford Mass.) and substrates and products were monitored by UV absorbance at 254 or 259 nm. Substrates and products were separated on a C18, 5 μm 250×4.6 mm HPLC column (Higgins Analytical, Mountain View, Calif.), using 15 mM ammonium acetate pH 6.0 solution, with a 0% to 10% (or 20%) methanol gradient. The products and substrate were quantified according to the integration of their correspondent peaks and the formula:
[formula] where [substrate]0 is the initial substrate concentration. The extinction coefficients of Ap3A, Ap4A, AMP, ADP and ATP used in the formula were the same as those used in absorption change assay. If monitoring at 254 nm, substrate and product standards run on the same day as the reactions were used to convert integrated product/substrate peak areas to concentrations. […]

Experiment [4] is described as follows: Diadenosine polyphosphate cleavage (linked assay, HPLC, absorbance). Conditions: HPLC or absorbance / real time spectrophotometric assay. It counts as biochemical. As to the method: as §4, with “100 μL of malachite green (BIOMOL GREEN™, Enzo Life Sciences, Plymouth Meeting, Pa.) was added to quench the reactions.” left out
The kinetics of the steady state Ap3A/Ap4A cleavage by NPP4 was measured from time courses of absorbance change at 259 nm using a UV spectrophotometer with a 0.1 cm optical path length cuvette or a stopped-flow device with a 0.2 cm optical path length cell. […] The substrate concentrations higher than 800 μM have absorption too high to be measured by a UV spectrophotometer and stopped-flow, and were therefore measured by HPLC. […]

As to `Nc1ncnc2c1ncn2[C@@H]1O[C@H](COP(=O)(O)OP(=O)(O)OP(=O)(O)OP(=O)(O)OC[C@H]2O[C@@H](n3cnc4c(N)ncnc43)[C@H](O)[C@@H]2O)[C@@H](O)[C@H]1O` [Ap4A], the “effect of Ap4A on Ap3A/NPP4-induced platelet aggregation” value in experiment [1] (80 μM Ap4A added to 100 nM NPP4 and 80 μM Ap3A) was “roughly half of the aggregation; also recorded: intermediate degree of platelet aggregation”. Further, in experiment [1] (80 μM Ap4A alone or in the presence of 100 nM NPP4), the “platelet aggregation response to Ap4A (qualitative)” value is listed as “no apparent positive effect on aggregation; also recorded: does not trigger even a primary wave of aggregation”. Moreover, the “platelet aggregation and granule release, Ap4A with NPP4 (qualitative)” value in experiment [2] (40 μM Ap4A with 100 nM NPP4) was “no measurable platelet aggregation; also recorded: no platelet aggregation and no granule release”.
Take `CNc1ncnc2c1ncn2[C@H]1C[C@H](OP(=O)(O)O)[C@@H](COP(=O)(O)O)O1` [MRS 2179]: the “inhibition of NPP4/Ap3A-promoted platelet aggregation (qualitative)” value in experiment [1] (50 nM NPP4, 80 μM Ap3A) is “concentration-dependent inhibition of platelet aggregation; also recorded: dose-dependent inhibition of the platelet aggregation response”.
In the case of `CNc1nc(Cl)nc2c1ncn2CC(COC(=O)C(C)(C)C)COC(=O)C(C)(C)C` [MRS 2395], the “inhibition of NPP4/Ap3A-promoted platelet aggregation (qualitative)” value in experiment [1] (50 nM NPP4, 80 μM Ap3A) is listed as “concentration-dependent inhibition of platelet aggregation; also recorded: dose-dependent inhibition of the platelet aggregation response”. For the same molecule, the “inhibition of NPP4/Ap3A-promoted platelet aggregation at 200 μM” value in experiment [1] (200 μM antagonist, 50 nM NPP4, 80 μM Ap3A, 10% DMSO) is given as “complete inhibition”.
As for diadenosine triphosphate [Ap3A], the “platelet aggregation response to Ap3A in the presence of 100 nM NPP4 (qualitative)” value in experiment [1] (100 nM NPP4, dose response of Ap3A) is “induces both the primary and secondary waves of aggregation in a concentration-dependent fashion; also recorded: robust platelet aggregation”. Besides, the values for the maximum aggregation in experiment [1] (40 μM Ap3A in the presence of 100 nM NPP4) and in experiment [1] (Ap3A 80 μM or higher in the presence of 100 nM NPP4) were 70% and “greater than 80%”, respectively. Moreover, the “platelet aggregation response, agent alone (qualitative)” value in experiment [1] (agent alone in PRP (Ap3A up to 160 μM; NPP4 100 nM)) was “triggers a primary wave of aggregation without degranulation, followed by rapid disaggregation; also recorded: only a primary wave of aggregation followed by rapid platelet disaggregation; also recorded: triggers a primary wave of aggregation, which is followed by rapid disaggregation”. For the same molecule, the “platelet aggregation and luminescence, Ap3A alone (qualitative)” value in experiment [2] (40 μM Ap3A alone in PRP) is listed as “primary wave of aggregation, followed by rapid disaggregation”.

B1: NPP4-T70A: inactive mutant NPP4 extracellular domain, catalytic threonine 70 mutated to alanine (protein, UniProt Q9Y6X5 16-407, looked up, variant T70A)
extracellular domain: FRSDSSSSLPPKLLLVSFDGFRADYLKNYEFPHLQNFIKEGVLVEHVKNVFITKAFPNHYSIVTGLYEESHGIVANSMYDAVTKKHFSDSNDKDPFWWNEAVPIWVTNQLQENRSSAAAMWPGTDVPIHDTISSYFMNYNSSVSFEERLNNITMWLNNSNPPVTFATLYWEEPDASGHKYGPEDKENMSRVLKKIDDLIGDLVQRLKMLGLWENLNVIITSDHGMTQCSQDRLINLDSCIDHSYYTLIDLSPVAAILPKINRTEVYNKLKNCSPHMNVYLKEDIPNRFYYQHNDRIQPIILVADEGWTIVLNESSQKLGDHGYDNSLPSMHPFLAAHGPAFHKGYKHSTINIVDIYPMMCHILGLKPHPNNGTFGHTKCLLVDQWCINLPEA
modifications: extracellular domain
Regarding B1, in experiment [3], the “Ap3A cleavage / hydrolysis (qualitative)” value was “incapable of Ap3A hydrolysis”. In experiment [4], the “diadenosine polyphosphate cleavage (qualitative)” value is “did not cleave diadenosine polyphosphates”. For the same molecule, the “platelet aggregation response of enzyme in the presence of 80 μM Ap3A (qualitative)” value in experiment [1] is given as “fails to induce aggregation”; in experiment [1] (listed as T70A mutant of NPP4), “no effect on platelet aggregation”. In addition, the “platelet aggregation and dense granule (ATP) release, enzyme with Ap3A (qualitative)” value in experiment [2] (100 nM enzyme with 40 μM Ap3A) is on record as “A similar pattern is observed”.
